Results on four substances are retold here after US8008009B2, “Method for ProNGF assay for in vitro diagnosis of cancer in particular breast, thyroid or lung cancer and therapeutic use of ProNGF” (Biomerieux, priority 2006, dated 2011).

Holding throughout (type): cell-based, human
Data set [1] deals with MCF-7 cells. Nature of the data set: Boyden chamber (Transwell) migration test. The note with it: 200 ng/mL in lower chamber, starving medium, 24 h, compared with starving medium alone. The protocol:
(§1) A “starving” medium was used, “starving” denoting a medium identical to the complete medium but without serum and supplemented with 2 μg/mL of fibronectin and 30 μg/mL of transferrin. For the various biological activity measurements, the various test molecules (ProNGF, NGF and galardin) are added to this starving medium. During the treatments, the media are renewed every 24 hours.
(§2) The migration and invasion tests are carried out as previously described by Bracke et al. (1999, J Natl Cancer Inst, 91: 354-359). The protocols for using Boyden chambers and for invasion in collagen gel are described below.
12-well plates containing Transwells® with a pore diameter of 12 μm are equilibrated with starving medium and placed at 37° C. under 5% CO2 for 2 hours. The medium is then drawn off and replaced, in the lower chamber, by starving medium with the various test molecules, whereas, in the upper chamber, 40 000 cells are seeded in starving medium alone. […] Each condition is carried out in duplicate; a minimum of 40 fields is counted for each condition. […]
The effects of ProNGF on the migration of mammary epithelial cells were comprehended by means of tests in Boyden chambers (Transwell®). Each condition was carried out in duplicate and a minimum of 40 fields was counted. […] The cells having crossed the Transwell® were then counted. *p<0.05, comparison with the starving medium alone condition.

For data set [2], the system named is MCF-7 cells. Description: Collagen type I gel invasion test. The conditions noted are these: 200 ng/mL, starving medium, 24 h. The protocol:
as §1, §2
The collagen type I gel is prepared in the following way: 2.1 mL of collagen Type I, 0.8 mL of EMEM (10×), 4.6 mL of PBS, 0.8 mL of NaHCO3 at 0.25 M and 0.15 mL of 1 M NaOH. 1.25 mL are deposited in the wells of a 6-well plate. Once the gel has solidified, 100 000 cells are seeded with starving medium and the various test molecules for 24 hours. The cells are subsequently counted and the invasion index is determined (number of deep cells related to the number of cells at the surface). Each condition is carried out in triplicate and a minimum of 45 fields is counted per condition.
The invasive capacity of the ProNGF-stimulated MCF-7 cells was tested in collagen type I gel. Each condition is carried out in triplicate and a minimum of 45 fields is counted per condition. […]

Data set [3] concerns ProNGF. Description: Anti-ProNGF Western blotting after siRNA transfection, densitometry. The note with it: MCF-7 cells, 3 μg siRNA. The protocol:
The MCF-7 cells are passaged 3-4 days before transfection, so as to reach 50% confluence at the time of the experiment. Two million cells are taken up in 100 μl of Nucleofector Kit V solution and 3 μg of siRNA are added. The transfection program used on the Nucleofector is E-14. Anti-ProNGF Western blotting is carried out on the lysates recovered after 24 hours or after 48 hours, according to the protocol described in point 2.1. The relative amount of ProNGF detected by blotting is evaluated with the QuantityOne software (Bio-Rad), related to the equal loading (actin) and presented in the form of a histogram where 100% is assigned to the siGFP control condition.
The MCF-7 cells were transfected with 3 μg interfering RNA (siRNA) directed against GFP (siGFP) or against ProNGF (siProNGF). After 24 to 48 h of culture, the cells were lysed and ProNGF Western blotting was carried out. The relative amount of ProNGF detected by blotting was evaluated with the QuantityOne software (Bio-Rad) related to the actin equal loading and presented in the form of a histogram where 100% is assigned to the siGFP control condition (FIG. 10). […] Densitometric analysis made it possible to evaluate this decrease at 59% after 24 h of transfection.
A general note: In western blotting, separated proteins are transferred to a membrane and probed.

Data set [4] has as its system MDA-MB-231 cells. Description: Cell proliferation (cell count) after siRNA transfection. The note with it: 3 μg siRNA, EMEM culture medium, counted at 24, 48 and 96 h; Mock and siGFP controls double between 24 and 48 h. The protocol:
The interfering RNA (siRNA) transfection experiments were carried out with the Cell Line Nucleofector kit from Amaxa and the corresponding electroporation apparatus. This system makes it possible to obtain a high efficiency of gene transfer to the nucleus (nucleofection).
The MDA-MB-231 cells are passaged 2 days before the transfection, so as to reach 80% confluence at the time of the experiment. The cells to be transfected are trypsinized and then counted. The cell pellet (1 million cells) is taken up in 100 μl of Nucleofector Kit V solution and 3 μg of siRNA are added. This cell suspension is transferred into an electroporation cuvette, placed in the Amaxa apparatus and electroporated according to the X-13 program. The cells are subsequently put back in culture in a well of a 6-well plate for 24-72 h. The cell proliferation is followed over time and the cells are counted at regular time intervals. Anti-Sortilin Western blotting is carried out on the lysates recovered at various times, according to the protocol described in the previous paragraph, “Expression of Sortilin”.
MDA-MB-231 cells maintained in the EMEM culture medium were transfected either with culture medium alone (Mock), or with an interfering RNA directed against the GFP protein (siGFP) or with an interfering RNA directed against Sortilin (siSORT).

For data set [5], the system named is Sortilin. Nature of the data set: Anti-Sortilin Western blotting after siRNA transfection. The note with it: MDA-MB-231 cells transfected with siRNA. The protocol:
For the Western blotting, the membranes are saturated with 4% bovine serum albumin in a solution of TBS (Tris Buffered Saline) 0.1% Tween 20 (17.54 g NaCl, 2.42 g Tris, 2 mL tween 20, QS 2 L, pH adjusted to 7.4) at ambient temperature for 2 hours. After saturation, the membranes are incubated overnight at 4° C. with the various primary antibodies: anti-Sortilin (BD612101 from BD Biosciences) at 1:2000, anti-Actin (A-2066 from Sigma) at 1:5000 in the saturation solution. After rinsing with TBS 0.1% Tween 20, the membranes are incubated for 1 hour at ambient temperature with an anti-rabbit secondary antibody (A-1949 from Sigma, France) coupled to horseradish peroxidase, at 1:20000 in the saturation solution. After rinsing, visualization is carried out with the ECL system (Pierce Interchim, France) according to the recommended data for use.
The MDA-MB-231 cells are passaged 2 days before the transfection, so as to reach 80% confluence at the time of the experiment. The cells to be transfected are trypsinized and then counted. The cell pellet (1 million cells) is taken up in 100 μl of Nucleofector Kit V solution and 3 μg of siRNA are added. This cell suspension is transferred into an electroporation cuvette, placed in the Amaxa apparatus and electroporated according to the X-13 program. […] The cell proliferation is followed over time and the cells are counted at regular time intervals. […]

For “ProNGF: human recombinant nerve growth factor precursor sold by SCIL proteins”, in data set [1], the cell migration entry is listed as “increase their ability to migrate”. In addition, in data set [2], the “invasion (invasion index)” value is “stimulates MCF-7 invasion”.
As for “siProNGF: interfering RNA directed against ProNGF; double-stranded RNA of SEQ ID No.5 and SEQ ID No.6 (chain 1 CAGUGUAUUCAAACAGUAUNN; chain 2 GUACUGUUUGAAUACACUGNN; listed as RNA, chemistry not given here)”, the “expression of the ProNGF protein (photographs of the blots)” value in data set [3] (24 to 48 h of culture) is listed as “decreases the expression of the ProNGF protein”. Further, the “decrease in expression of ProNGF (densitometric analysis)” value in data set [3] (after 24 h of transfection, 100% assigned to siGFP control, related to actin) is recorded as 59%.
In the case of “NGF: recombinant nerve growth factor obtained from R&D systems”, the cell migration result in data set [1] is reported as “increase their ability to migrate, in a similar manner to NGF”.
On to “siSORT: interfering RNA which decreases the expression of Sortilin; double-stranded RNA of SEQ ID No.3 and SEQ ID No.4 (chain 1 GGUGGUGUUAACAGCAGAGNN; chain 2 CUCUGCUGUUAACACCACCNN; listed as RNA, chemistry not given here)”, for which, in data set [4], the “number of MDA-MB-231 cells in culture over time” value is “does not increase over time”. The “level of expression of the Sortilin protein” value in data set [5] is “decreased the level of expression of the Sortilin protein”.
